The results in this text go back to PubChem BioAssay AID1259407 (Chemical Carcinogenesis Research Information System (CCRIS), 2018).

Calls of active or inactive are those of the source. How the calls were made is not given here.

For this data set, the system named is CCRIS mutagenicity, Ames/micronucleus/aberration tests. The data set can be described thus: CCRIS mutagenicity studies. The conditions noted are these: Test System: AMES SALMONELLA TYPHIMURIUM
Setting [1] is: Strain/Indicator: TA98, Metabolic Activation: NONE, Method: PREINCUBATION

On to `O=[N+]([O-])c1ccc2c(c1)Oc1ccccc1O2`, for which the mutagenic call is, setting by setting: (Strain/Indicator: TA98(1,8-DNP6), Metabolic Activation: NONE, Method: PREINCUBATION) “active; positive”; (Strain/Indicator: TA98(1,8-DNP6), Metabolic Activation: NONE, Method: SUSPENSION) “active; positive”; (Strain/Indicator: TA98(1,8-DNP6), Metabolic Activation: RAT, LIVER, S-9, PCB (5%), Method: PREINCUBATION) “active; positive”; (Strain/Indicator: TA98(NR), Metabolic Activation: NONE, Method: SUSPENSION) “inactive; negative”; (Strain/Indicator: TA98(NR), Metabolic Activation: RAT, LIVER, S-9 (15%), Method: PREINCUBATION) “active; positive”; (Strain/Indicator: TA98(NR), Metabolic Activation: RAT, LIVER, S-9, 3-METHYLCHOLANTHRENE (15%), Method: PREINCUBATION) “active; positive”. Also, the mutagenic call by setting is: (Strain/Indicator: TA98(NR), Metabolic Activation: RAT, LIVER, S-9, BETA-NAPHTHOFLAVONE (15%), Method: PREINCUBATION) “active; positive”; (Strain/Indicator: TA98(NR), Metabolic Activation: RAT, LIVER, S-9, PCB (5 OR 15%), Method: PREINCUBATION) “active; positive”; (Strain/Indicator: TA98(NR), Metabolic Activation: RAT, LIVER, S-9, PHENOBARBITAL (15%), Method: PREINCUBATION) “active; positive”; under setting [1], “active; positive”; (Strain/Indicator: TA98, Metabolic Activation: NONE, Method: STANDARD PLATE) “active; positive”; (Strain/Indicator: TA98, Metabolic Activation: NONE, Method: SUSPENSION) “active; positive”. Besides, the mutagenic call is “active; positive” (Strain/Indicator: TA98, Metabolic Activation: RAT, LIVER, S-9, AROCLOR, Method: STANDARD PLATE); “active; positive” (Strain/Indicator: TA98, Metabolic Activation: RAT, LIVER, S-9, PCB (5%), Method: PREINCUBATION); “active; positive” (Strain/Indicator: TA98, Metabolic Activation: RAT, LIVER, S-9, PCB, Method: SUSPENSION); “inactive; negative” (Strain/Indicator: TA100, Metabolic Activation: NONE, Method: PREINCUBATION); “active; positive” (Strain/Indicator: TA100, Metabolic Activation: NONE, Method: STANDARD PLATE); “inactive; negative” (Strain/Indicator: TA100, Metabolic Activation: NONE, Method: SUSPENSION). For the same compound, the mutagenic call was “active; positive” (Strain/Indicator: TA100, Metabolic Activation: RAT, LIVER, S-9, AROCLOR, Method: STANDARD PLATE); “inactive; negative” (Strain/Indicator: TA100, Metabolic Activation: RAT, LIVER, S-9, PCB (5%), Method: PREINCUBATION); “inactive; negative” (Strain/Indicator: TA100, Metabolic Activation: RAT, LIVER, S-9, PCB, Method: SUSPENSION).

Turning to `O=CC(Cl)(Cl)Cl`, the mutagenic call was “inactive; negative” (Strain/Indicator: TA97, Metabolic Activation: HAMSTER, LIVER, S-9, AROCLOR 1254 (10%), Method: PREINCUBATION); “inactive; negative” (Strain/Indicator: TA97, Metabolic Activation: NONE, Method: PREINCUBATION); “inactive; negative” (Strain/Indicator: TA97, Metabolic Activation: RAT, LIVER, S-9, AROCLOR 1254 (10%), Method: PREINCUBATION); “inactive; negative” (Strain/Indicator: TA98, Metabolic Activation: HAMSTER, LIVER, S-9, AROCLOR 1254 (10%), Method: PREINCUBATION); “inactive; negative” under setting [1]; “inactive; negative” (Strain/Indicator: TA98, Metabolic Activation: RAT, LIVER, S-9, AROCLOR 1254 (10%), Method: PREINCUBATION). The mutagenic call (Strain/Indicator: TA100, Metabolic Activation: HAMSTER, LIVER, S-9, AROCLOR 1254 (5, 10 OR 30%), Method: PREINCUBATION) is “inactive; negative”; the mutagenic call (Strain/Indicator: TA100, Metabolic Activation: RAT, LIVER, S-9, AROCLOR 1254 (5, 10 OR 30%), Method: PREINCUBATION) is “inactive; negative”; the mutagenic call (Strain/Indicator: TA100, Metabolic Activation: RAT, LIVER, S-9, Method: PREINCUBATION) is “active; positive”; the mutagenic call (Strain/Indicator: TA1535, Metabolic Activation: HAMSTER, LIVER, S-9, AROCLOR 1254 (10%), Method: PREINCUBATION) was “inactive; negative”; the mutagenic call (Strain/Indicator: TA1535, Metabolic Activation: NONE, Method: PREINCUBATION) was “inactive; negative”; the mutagenic call (Strain/Indicator: TA1535, Metabolic Activation: RAT, LIVER, S-9, AROCLOR 1254 (10%), Method: PREINCUBATION) is “inactive; negative”.

With `CN(C)CCNC(=O)c1cccc2nc(-c3ccccc3)oc12`, the mutagenic call (Strain/Indicator: TA1537, Metabolic Activation: NONE, Method: STANDARD PLATE) is “inactive; negative”.
